Values after ≈ are worked out from the molar mass of the structure shown.
Columns and labels:
[1] = system: Staphylococcus aureus ATCC 700699 (MRSA); experiment: minimum inhibitory concentration; extreme values may be limits of the assay
Procedure, shortened: (§1)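 Broth microdilution in 96-well plates, following CLSI guidance with a resazurin redox read-out, was used to test methicillin-susceptible and methicillin-resistant Staphylococcus aureus. Compounds ranging from 0 to 100 µM were incubated with the bacteria at 37°C for 24 h, after which 30 µl of 0.015% resazurin was added for 2–4 h, and every plate carried positive controls. The minimum inhibitory concentration was taken as the lowest concentration at which wells stayed blue instead of turning pink, and runs were performed at least twice in triplicate.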

[2] = system: Staphylococcus aureus ATCC 29213 (MSSA); experiment: as above
Procedure, shortened: as §1

SMILES: Cc1ccccc1C(=O)N1N=C(Nc2ccccc2)SC1(C)C
- minimum inhibitory concentration [1]: > 50 µM
- minimum inhibitory concentration [2]: > 50 µM

SMILES: COc1cc(C2=NCCN2)ccc1-n1cc(-c2cccc(C3=NCCN3)c2)nn1
- minimum inhibitory concentration [1]: > 50 µM
- minimum inhibitory concentration [2]: > 50 µM

SMILES: Cc1noc(C)c1C(=O)N1CCCC(c2[nH]c3c(C)cccc3c2-c2ccncc2)C1 (centres undefined)
- minimum inhibitory concentration [1]: > 50 µM
- minimum inhibitory concentration [2]: > 50 µM

SMILES: C[C@H]1c2cccc(O)c2C(=O)C2=C(O)[C@]3(O)C(=O)C(C(N)=O)=C(O)[C@@H](N(C)C)[C@@H]3[C@@H](O)[C@@H]21
- minimum inhibitory concentration [1]: 25 µM (≈ 11.1 µg/mL)
- minimum inhibitory concentration [2]: 0.781 µM (≈ 0.347 µg/mL)

SMILES: O=C(NC1CCN(c2ccnc3ccccc23)C1)c1cccc(C(F)(F)F)c1 (centres undefined)
- minimum inhibitory concentration [1]: > 50 µM
- minimum inhibitory concentration [2]: > 50 µM

SMILES: Nc1ccc(C(=O)Nc2ccc(-c3nc4ccccc4o3)cc2)cc1
- minimum inhibitory concentration [1]: > 50 µM
- minimum inhibitory concentration [2]: > 50 µM

SMILES: NC(=O)c1cc(Br)ccc1OCCOc1ccccc1
- minimum inhibitory concentration [1]: > 50 µM
- minimum inhibitory concentration [2]: > 50 µM

SMILES: CN1CCCC1CCO[C@](C)(c1ccccc1)c1ccc(Cl)cc1 (some centres undefined)
- minimum inhibitory concentration [1]: 50 µM (≈ 17.2 µg/mL)
- minimum inhibitory concentration [2]: > 50 µM

SMILES: CCCn1c(CNc2ccccc2O)nc2ccccc21
- minimum inhibitory concentration [1]: > 50 µM
- minimum inhibitory concentration [2]: > 50 µM

SMILES: FC(F)(F)c1cc(NCCc2ccccc2)nc(-c2ccccn2)n1
- minimum inhibitory concentration [1]: > 50 µM
- minimum inhibitory concentration [2]: > 50 µM

SMILES: NC(CC(=O)c1ccc(Cl)cc1Cl)C(Cl)(Cl)Cl (centres undefined)
- minimum inhibitory concentration [1]: > 50 µM
- minimum inhibitory concentration [2]: > 50 µM

SMILES: CC(C(=O)N1CCCC1)N1CCN(S(=O)(=O)c2ccc(C(C)(C)C)cc2)CC1 (centres undefined)
- minimum inhibitory concentration [1]: > 50 µM
- minimum inhibitory concentration [2]: > 50 µM

SMILES: NCC(c1cccs1)S(=O)(=O)c1ccccc1 (centres undefined)
- minimum inhibitory concentration [1]: > 50 µM
- minimum inhibitory concentration [2]: > 50 µM

SMILES: CC1=Nc2ccc(Cl)cc2C(c2ccccc2)N1CCNC(=O)CN(C)C (centres undefined)
- minimum inhibitory concentration [1]: > 50 µM
- minimum inhibitory concentration [2]: > 50 µM

SMILES: CCc1nc2ccc(Cl)cn2c1C(=O)NCc1ccc(N2CCC(c3ccc(OC(F)(F)F)cc3)CC2)cc1
- minimum inhibitory concentration [1]: > 50 µM
- minimum inhibitory concentration [2]: > 50 µM

SMILES: O=C(C1CCN(c2cc(-n3cccc3)ncn2)CC1)N1CCc2ccccc2C1
- minimum inhibitory concentration [1]: > 50 µM
- minimum inhibitory concentration [2]: > 50 µM

SMILES: CC(=O)NC[C@@H]1CN(c2ccc(N3CCOCC3)c(F)c2)C(=O)O1
- minimum inhibitory concentration [1]: 3.12 µM (≈ 1.05 µg/mL)
- minimum inhibitory concentration [2]: 6.25 µM (≈ 2.11 µg/mL)

SMILES: Cc1ccc2nc(C)c(-c3ccn(Cc4ccccc4)n3)n2c1
- minimum inhibitory concentration [1]: > 50 µM
- minimum inhibitory concentration [2]: > 50 µM

SMILES: CN1CCN(c2cc(-c3ccc(F)cc3)nc(-c3ccncc3)n2)CC1
- minimum inhibitory concentration [1]: > 50 µM
- minimum inhibitory concentration [2]: > 50 µM

SMILES: Cc1ccc(S(=O)(=O)N2CCN(C(=O)c3cc(-c4ccccc4)n[nH]3)CC2)cc1
- minimum inhibitory concentration [1]: > 50 µM
- minimum inhibitory concentration [2]: > 50 µM

SMILES: Nc1ncc(-c2ccc(C(F)(F)F)nc2)cc1-c1ccc(C(F)(F)F)nc1
- minimum inhibitory concentration [1]: > 50 µM
- minimum inhibitory concentration [2]: > 50 µM

SMILES: COc1ccc(CN2CCOc3ccc(C(C)(O)CN(C)C)cc3C2)cc1C (centres undefined)
- minimum inhibitory concentration [1]: > 50 µM
- minimum inhibitory concentration [2]: > 50 µM

SMILES: CC(C)NCC(=O)Nc1cccc(C(=O)Nc2cccc(C(F)(F)F)c2)c1
- minimum inhibitory concentration [1]: > 50 µM
- minimum inhibitory concentration [2]: > 50 µM

SMILES: c1ccc(Oc2ccc(-c3cc(N4CCNCC4)[nH]n3)cc2)cc1
- minimum inhibitory concentration [1]: > 50 µM
- minimum inhibitory concentration [2]: > 50 µM

SMILES: Cc1cc(C)cc(COc2ccc3c(C)c(CCC(=O)O)c(=O)oc3c2C)c1
- minimum inhibitory concentration [1]: > 50 µM
- minimum inhibitory concentration [2]: > 50 µM

SMILES: CC[C@@H]([C@H](C)O)n1ncn(-c2ccc(N3CCN(c4ccc(OC[C@@H]5CO[C@@](Cn6cncn6)(c6ccc(F)cc6F)C5)cc4)CC3)cc2)c1=O
- minimum inhibitory concentration [1]: > 50 µM
- minimum inhibitory concentration [2]: > 50 µM

SMILES: O=C(Cn1ccnc1[N+](=O)[O-])NCc1ccccc1
- minimum inhibitory concentration [1]: > 50 µM
- minimum inhibitory concentration [2]: > 50 µM

SMILES: N#CCN(CCCCN1CCN(c2ccc(F)cc2)CC1)C(=O)OCc1ccccc1
- minimum inhibitory concentration [1]: > 50 µM
- minimum inhibitory concentration [2]: > 50 µM

SMILES: CCOc1ccc(-c2nc(NC(=O)CS(=O)(=O)c3ccccc3)sc2C)cc1
- minimum inhibitory concentration [1]: > 50 µM
- minimum inhibitory concentration [2]: > 50 µM

SMILES: CC(Oc1cccc(Cl)c1)C(=O)Nc1ccc2oc(-c3ccncc3)nc2c1 (centres undefined)
- minimum inhibitory concentration [1]: > 50 µM
- minimum inhibitory concentration [2]: > 50 µM

SMILES: COc1cc(NC(=O)Cc2nn(C)c(=O)c3ccccc23)ccc1Cl
- minimum inhibitory concentration [1]: > 50 µM
- minimum inhibitory concentration [2]: > 50 µM

SMILES: CC(C)C(Oc1cccc2ccccc12)C(=O)O (centres undefined)
- minimum inhibitory concentration [1]: > 50 µM
- minimum inhibitory concentration [2]: > 50 µM

SMILES: CCCCc1ccc(C(=O)Nc2nccc3ccccc23)nc1
- minimum inhibitory concentration [1]: > 50 µM
- minimum inhibitory concentration [2]: > 50 µM

SMILES: CC(=O)N(CCN(C(=O)c1ccc(F)cc1)c1ccccc1)c1ccccc1
- minimum inhibitory concentration [1]: > 50 µM
- minimum inhibitory concentration [2]: > 50 µM

SMILES: N#Cc1nc(-c2ccccc2)oc1S(=O)(=O)c1ccc(Cl)cc1
- minimum inhibitory concentration [1]: > 50 µM
- minimum inhibitory concentration [2]: > 50 µM

SMILES: CC(C)(C)[C@H]1CC[C@H](CC2=C(O)C(=O)c3ccccc3C2=O)CC1
- minimum inhibitory concentration [1]: > 50 µM
- minimum inhibitory concentration [2]: > 50 µM

SMILES: Cc1cc2nc(NC(=O)C(C)(C)C)nc(Cl)c2n1Cc1ccc(Cl)cc1
- minimum inhibitory concentration [1]: > 50 µM
- minimum inhibitory concentration [2]: > 50 µM

SMILES: CC(=O)OCC1OC([S-])C(OC(C)=O)C(OC(C)=O)C1OC(C)=O.CCP(CC)CC.[Au+] (centres undefined)
- minimum inhibitory concentration [1]: 0.78 µM
- minimum inhibitory concentration [2]: 0.39 µM

SMILES: CO[C@H]1/C=C\O[C@@]2(C)Oc3c(C)c(O)c4c(O)c(/c(=C/NN5CCN(C)CC5)c(O)c4c3C2=O)=N\C(=O)/C(C)=C\C=C/[C@H](C)[C@H](O)[C@@H](C)[C@@H](O)[C@@H](C)[C@H](OC(C)=O)[C@@H]1C
- minimum inhibitory concentration [1]: 50 µM (≈ 41.1 µg/mL)
- minimum inhibitory concentration [2]: 0.09 µM (≈ 0.0741 µg/mL)

SMILES: FC(F)(F)c1cnc(Sc2nnc(-c3ccncc3)o2)c(Cl)c1
- minimum inhibitory concentration [1]: > 50 µM
- minimum inhibitory concentration [2]: > 50 µM

SMILES: NS(=O)(=O)c1cccc(-c2ccc3ncc(N4CCOCC4)nc3c2)c1
- minimum inhibitory concentration [1]: > 50 µM
- minimum inhibitory concentration [2]: > 50 µM

SMILES: CN1CCN(c2nccc3[nH]c(-c4cccc(F)c4)cc23)CC1
- minimum inhibitory concentration [1]: > 50 µM
- minimum inhibitory concentration [2]: > 50 µM

SMILES: CC(C(=O)Nc1ccc2oc(-c3ccncc3)nc2c1)c1ccccc1 (centres undefined)
- minimum inhibitory concentration [1]: > 50 µM
- minimum inhibitory concentration [2]: > 50 µM

SMILES: O=C([C@@H](c1ccc(Cl)cc1)c1cccnc1)N1CCN(c2ccc(C(F)(F)F)cc2)CC1
- minimum inhibitory concentration [1]: 50 µM (≈ 23 µg/mL)
- minimum inhibitory concentration [2]: 50 µM (≈ 23 µg/mL)

SMILES: COc1ccc(Cn2cnc3c(-c4ccco4)nc(Cl)nc32)cc1
- minimum inhibitory concentration [1]: > 50 µM
- minimum inhibitory concentration [2]: > 50 µM

SMILES: COc1cccn2c(C(=O)N3CCCCC3)c(C(F)(F)F)nc12
- minimum inhibitory concentration [1]: > 50 µM
- minimum inhibitory concentration [2]: > 50 µM

SMILES: COc1ccc(OC(C)C(=O)Nc2ccc(Cl)cc2C)cc1 (centres undefined)
- minimum inhibitory concentration [1]: > 50 µM
- minimum inhibitory concentration [2]: > 50 µM

SMILES: COc1cc(Br)cc2cc(C(=O)Nc3cccc(C(F)(F)F)c3)c(=O)oc12
- minimum inhibitory concentration [1]: > 50 µM
- minimum inhibitory concentration [2]: > 50 µM

SMILES: CCC(Sc1nc2ccccc2o1)C(=O)Nc1nnc(C)s1 (centres undefined)
- minimum inhibitory concentration [1]: 50 µM (≈ 16.7 µg/mL)
- minimum inhibitory concentration [2]: 50 µM (≈ 16.7 µg/mL)

SMILES: CN1CCN(c2nccc3nc(-c4ccc(F)c(F)c4)[nH]c23)CC1
- minimum inhibitory concentration [1]: > 50 µM
- minimum inhibitory concentration [2]: > 50 µM

SMILES: CCOc1ccc2cc(-c3nn(CC4CCN(C)CC4)c4ncnc(N)c34)ccc2c1
- minimum inhibitory concentration [1]: > 50 µM
- minimum inhibitory concentration [2]: > 50 µM

SMILES: COc1ccccc1C(C)NCC(=O)Nc1cc(C(F)(F)F)ccc1Cl (centres undefined)
- minimum inhibitory concentration [1]: > 50 µM
- minimum inhibitory concentration [2]: > 50 µM

Reference: the supplement of paper PMC6206229
